pIC50: −log10 of the molar value. Entries after “also recorded” stand apart in the source; their conditions may differ. Read-outs that look alike come from different tables or passages of the source.
How the values were obtained:
COX-2 = target: T1, COX-2 (Mus musculus, UniProt Q05769); test: Inhibition of COX-2 oxygenation by acetaminophen and its metabolites; assay type: biochemical; details: for Inhibition of AA oxygenation: up to 1 mM
T1 sequence (Q05769 18-604): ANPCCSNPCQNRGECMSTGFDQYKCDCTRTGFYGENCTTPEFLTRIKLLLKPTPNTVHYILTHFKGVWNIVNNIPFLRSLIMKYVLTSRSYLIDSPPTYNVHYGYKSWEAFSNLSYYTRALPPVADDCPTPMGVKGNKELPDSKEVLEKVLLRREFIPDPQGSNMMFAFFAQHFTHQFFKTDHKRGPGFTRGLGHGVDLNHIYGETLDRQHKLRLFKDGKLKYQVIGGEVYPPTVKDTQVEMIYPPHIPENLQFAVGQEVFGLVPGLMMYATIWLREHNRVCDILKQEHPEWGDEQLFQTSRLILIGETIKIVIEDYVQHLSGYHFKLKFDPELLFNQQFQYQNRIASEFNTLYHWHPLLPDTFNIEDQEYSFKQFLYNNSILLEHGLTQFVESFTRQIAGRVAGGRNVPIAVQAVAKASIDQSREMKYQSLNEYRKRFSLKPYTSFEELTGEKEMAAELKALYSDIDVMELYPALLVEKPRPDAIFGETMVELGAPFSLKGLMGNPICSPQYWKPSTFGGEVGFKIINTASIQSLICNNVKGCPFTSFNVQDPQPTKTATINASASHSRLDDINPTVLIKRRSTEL

wild type mCOX-2 = target: T2, wild type mCOX-2 (Mus musculus, UniProt Q05769); test: biochemical
T2 sequence (Q05769 18-604): T1 sequence (Q05769 18-604)

purified murine COX-2 = target: T3, purified murine COX-2 (Mus musculus, UniProt Q05769); test: Inhibition of mCOX-2 dependent oxygenation of 2-AG and AA by profens in vitro; assay type: biochemical; parameters: made in house; host or cells: insect cells; details: achiral profens
T3 sequence (Q05769 18-604): T1 sequence (Q05769 18-604)
Procedure: Desired concentrations of inhibitor in DMSO or blank (DMSO) were incubated with mCOX-2 (40 nM) for 3 minutes in 100 mM Tris-HCl with 0.5 mM phenol, pH 8.0 at 37° C. After pre-incubation of enzyme and inhibitor, 5 μM of AA or 2-AG was added at 37° C. Thirty seconds later, the reaction was quenched with 200 μL of ice-cold ethyl acetate containing 0.5% acetic acid (v/v) and 1 μM PGE2-d4 and PGE2-G-d5. The solution was then vortexed and the aqueous layer frozen. The organic layer was removed and evaporated to near-dryness under nitrogen. The samples were reconstituted in 1:1 MeOH:H2O and chromatographed using a LUNA® C18(2) column (50 2 mm, 3 μm; Phenomenex, Torrance, Calif., United States of America). […] Analyte peak areas were normalized to the appropriate internal standard to determine the amount of product formation, and inhibition was determined by normalization to a DMSO control.

[1] = target: T4, COX-2 in RAW 264.7 macrophages (Mus musculus, UniProt Q05769); test: RAW cells assay: oxygenation of 2-AG and AA; assay type: cell-based
T4 construct: endogenous in cells; host or cells: RAW 264.7 macrophages stimulated with LPS (and GM-CSF / interferon γ where described)
T4 sequence (Q05769 18-604): T1 sequence (Q05769 18-604)
Procedure: Two hours after stimulation, varying doses of inhibitor were added to the cell media and 6 hr after stimulation the media were collected and analyzed by LC-MS-MS for prostaglandin levels.
The cells were then stimulated overnight with 20 ng/ml of granulocyte-macrophage colony-stimulating factor. The media was replaced in the morning with DMEM with GLUTAMAX® and the cells were stimulated with 100 ng/ml lipopolysaccharide and 20 units/ml interferon γ. Two hours after stimulation varying doses of inhibitor were added to the cell media and 6 hours after stimulation the media was collected and extracted in acidified ethyl acetate spiked with deuterated internal standards. The organic layer was dried down under a stream of nitrogen gas and reconstituted in 1:1 water:methanol and analyzed by LC-MS/MS for prostaglandin levels using the same instrumentation, column, solvents and conditions as described for the in vitro assay above.

mCOX-2 = target: T5, mCOX-2 (Mus musculus, UniProt Q05769); test: Inhibition of COX-2-mediated oxygenation of arachidonic acid and 2-AG, purified enzyme, 15 min preincubation; assay type: biochemical, murine
T5 construct: made in house; host or cells: insect cells
T5 sequence (Q05769 18-604): T1 sequence (Q05769 18-604)
Procedure: Various concentrations of inhibitor (or DMSO) were incubated with mCOX-2 (200 nM) for 5-15 minutes in 100 mM Tris-HCl with 0.5 mM phenol, pH 8.0. For mutant mCOX-2 experiments, the enzyme concentration was adjusted such that the turnover was approximately equal to wild type enzyme. The preincubation time was determined on the basis of previous reports regarding the time required to achieve maximal inhibition, and preincubation was performed at 25° C. except for the final 3 minutes, which took place at 37° C. […] After the preincubation of enzyme and inhibitor, arachidonic acid or 2-AG was added for 30 seconds at 37° C. The reaction was quenched with ice-cold ethyl acetate containing 0.5% (v/v) acetic acid and 1 μM PGE2-d4 and PGE2-G-d5. The solution was then vigorously mixed and cooled on ice. The organic layer was separated and evaporated to near-dryness under nitrogen. […] Peak areas for analytes were normalized to the appropriate internal standard to determine the amount of product formation, and the amount of inhibition was determined by normalization to a DMSO control.

ICR mice = test: Novel open field test; assay type: in vivo; details: 10 mg/kg
Procedure: Animals were tested for open-field activity in a novel environment one hour after i.p. injection of compound as described in Sumislawski et al., 2011. Briefly, one-hour sessions were performed using automated experimental chambers (27.9 27.9 cm; MEDOFA-510; MED Associates, Ga., Vermont, United States of America) under constant illumination within a sound-attenuated room. Analysis of open field activity was performed using Activity Monitor v5.10 (MED Associates).

[2] = test system: brain eCB, AA and PG levels; test: Brain eCB, NAE, MAG, AA and PG levels after i.p. injection; assay type: in vivo, mice; details: for Brain AA levels / Brain PG levels: 10 mg/kg i.p. (Compound A: any dose tested); for Brain AEA levels: 10 mg/kg i.p.
Procedure: 5-7 week old male ICR mice were used for all experiments with the exception of knockout animals (Harlan, Indianapolis, Ind., United States of America). Mice were housed 5 per […]. All behavioral tests were conducted during the light cycle between 0900 and 1700. KO and WT littermate controls for FAAH^(−/−) and COX-2^(−/−) mice were derived from heterozygote breeding pairs, bred and genotyped as described in Uddin et al., 2011. CB1^(−/−) mice were bred from homozygote breeding pairs and genotyped as described in Pan et al., 2008. Mice were group-housed on a 12:12 light-dark cycle (lights on at 06:00), with food and water available ad libitum. All animal studies were approved by the Vanderbilt Institutional Animal Care and Use Committee and conducted in accordance with the Guide for the Care and Use of Laboratory Animals of the United States National Institutes of Health.
(§1) Mice were sacrificed by cervical dislocation and decapitation. The brain, lungs, liver, stomach, small intestines, and kidneys were then rapidly removed and frozen on a metal block in dry ice. The tissue was then placed in a tube and stored at −80° C. until extraction, usually one day after harvesting. For PG and eCB analysis, lipid extraction from tissue was carried out as described in Patel et al., 2009.
(§2) Analytes were quantified using LC-MS/MS on a Quantum triple-quadrupole mass spectrometer in positive-ion mode using selected reaction monitoring. Detection of eicosanoids was performed as described in Kingsley & Marnett, 2007. For fatty acid analysis the mobile phases used were 80 μM AgOAc with 0.1% (v/v) acetic acid in H2O (solvent A) and 120 μM AgOAc with 0.1% (v/v) acetic acid in MeOH (solvent B). The analytes were eluted using a gradient from 20% A to 99% B over 5 minutes. The transitions used were m/z 300→282 for PEA, m/z 328→310 for SEA, m/z 434→416 for OEA, m/z 456→438 for AEA, m/z 464→446 for AEA-d8, m/z 331→257 for 2-PG, m/z 359→285 for 2-SG, m/z 463→389 for 2-OG, m/z 485→411 for 2-AG, m/z 493→419 for 2-AG-d8, m/z 519→409 for AA, and m/z 527→417 for AA-d8. Peak areas for the analytes were normalized to the appropriate internal standard and then normalized to tissue mass for in vivo samples.

[3] = test system: peripheral tissue eCB, NAE, MAG and PG levels; test: Peripheral tissue NAE, MAG and PG levels after i.p. injection; assay type: in vivo, mice; details: stomach, heart, kidney, lung, intestine
Procedure: as §1
as §2, with “samples. […]” for “samples.”

[4] = 2-AG IC50, 2-AG oxygenation by COX-2
[5] = AA IC50, AA oxygenation by COX-2
[6] = read-out: IC50, COX-2 oxygenation of 2-AG, 50 μM 2-AG, 15 min preincubation, LC-MS/MS

In the case of `Nc1ccc(O)cc1` [4-aminophenol], the pIC50 (COX-2) was 4.15 and the “Inhibition of AA oxygenation” value (COX-2) was “No inhibition”.
With `CC(=O)Nc1ccc(O)cc1` [APAP, acetaminophen] the “Inhibition of AA oxygenation” value (COX-2) was “No inhibition”.
`COc1ccc2c(c1)c(CC(N)=O)c(C)n2C(=O)c1ccc(Cl)cc1` [B] showed a pIC50 (wild type mCOX-2; [4]) of 6.23 and a pIC50 (wild type mCOX-2; [5]) of 6.21.
`COc1ccc2c(c1)c(CC(=O)NCCO)c(C)n2C(=O)c1ccc(Cl)cc1` [C] gave a pIC50 (wild type mCOX-2; [4]) of 6.63 and a pIC50 (wild type mCOX-2; [5]) of 6.58.
`CC(C)(C(=O)O)c1ccc(-c2ccccc2)c(F)c1` [Compound 4a, 2-(2-fluoro-[1,1′-biphenyl]-4-yl)-2-methylpropanoic acid] was tested, and the inhibition at 10 µM (purified murine COX-2; at 10 μM inhibitor, AA 5 μM, read-out: AA % Inhibition) was 5%, the pIC50 (purified murine COX-2; murine COX-2 40 nM, 3 min preincubation, 2-AG 5 μM, 37° C., 30 s, mean ± SD, read-out: 2-AG IC50) was 5.96 and the inhibition at 25 µM ([1]; RAW264.7, at 25 μM compound) was 40%. For the same molecule, the pIC50 ([1]; conversion of 2-AG to PGE2-G/PGD2-G) was 5.28.
With `COc1ccc2c(c1)c(CC(=O)O)cn2C(=O)c1ccc(Cl)cc1` [DM-INDO] the pIC50 (mCOX-2; 50 μM AA, 15 min preincubation, LC-MS/MS, read-out: IC50, COX-2 oxygenation of arachidonic acid) was less than 4.60 and the pIC50 (mCOX-2; [6]) was 6.60.
`COc1ccc2c(c1)c(CC(=O)N(C)C)c(C)n2C(=O)c1ccc(Cl)cc1` [D] gave a pIC50 (wild type mCOX-2; [4]) of 6.37 and a pIC50 (wild type mCOX-2; [5]) of 4.72.
Molecule `CCN(CC)C(=O)Cc1c(C)n(C(=O)c2ccc(Cl)cc2)c2ccc(OC)cc12` [E] has a pIC50 (wild type mCOX-2; [4]) of 6.23 and a pIC50 (wild type mCOX-2; [5]) of 4.64.
With `COc1ccc2c(c1)c(CC(=O)N1CCCCC1)c(C)n2C(=O)c1ccc(Cl)cc1` [F] the pIC50 (wild type mCOX-2; [4]) was 6.19 and the pIC50 (wild type mCOX-2; [5]) was less than 4.60.
In the case of `COc1ccc2c(c1)c(CC(=O)N(C)CCc1ccccc1)c(C)n2C(=O)c1ccc(Cl)cc1` [G], the pIC50 (wild type mCOX-2; [4]) was 6.15 and the pIC50 (wild type mCOX-2; [5]) was less than 4.60.
In the case of `Cc1ccc(Nc2c(F)cccc2Cl)c(CC(=O)O)c1` [Lumiracoxib], the “IC50, COX-2 oxygenation of arachidonic acid” value (mCOX-2; 50 μM AA, 15 min preincubation, LC-MS/MS) was “No inhibition” and the pIC50 (mCOX-2; [6]) was 7.40.
`CS(=O)(=O)Nc1ccc([N+](=O)[O-])cc1OC1CCCCC1` [NS-398, reference compound] was tested, and the “Center distance travelled and center time in the open-field arena” value (ICR mice) was “significantly increased”, the “Brain AA levels” value ([2]; 2 hours) was “significantly increased” and the “Brain PG levels” value ([2]; 2 hours) was “profoundly decreased”. The “Brain AEA levels” value ([2]; 2 hours, vs vehicle) was “significantly increased”.
`CS(=O)(=O)c1ccc(C2=C(c3ccccc3)C(=O)OC2)cc1` [Rofecoxib] showed a pIC50 (mCOX-2; read-out: IC50, COX-2 oxygenation of 2-AG) of 7.07 and a pIC50 (mCOX-2; read-out: IC50, COX-2 oxygenation of arachidonic acid) of 6.28.
In the case of `COc1ccc(-n2nc(C(F)(F)F)cc2-c2ccc(Cl)cc2)cc1` [SC-560, reference compound], the “Center distance travelled and center time in the open-field arena” value (ICR mice) was “did not have any significant behavioral effect; also recorded: no significant behavioral effects”, the “Brain AA levels” value ([2]; 2 hours) was “significantly increased” and the “Brain PG levels” value ([2]; 2 hours) was “profoundly decreased”. The “Brain AEA levels” value ([2]; 2 hours, vs vehicle) was “significantly increased”.
`COc1ccc2c(c1)c(CC(=O)O)c(C)n2C(=O)c1ccc(Cl)cc1` [indomethacin, reference compound] was tested, and the “Center distance travelled and center time in the open-field arena” value (ICR mice) was “significantly increased”, the “Center distance travelled and center time in the open-field arena” value (ICR mice; listed as Indomethacin) was “increased” and the “Brain AA levels” value ([2]; 2 hours) was “significantly increased”. The “Brain PG levels” value ([2]; 2 hours) was “profoundly decreased”, the “Brain 2-AG levels” value ([2]; 10 mg/kg i.p. (highest dose), 2 hours, vs vehicle) was “significantly increased” and the “Brain AEA levels” value ([2]; 2 hours, vs vehicle) was “significantly increased”. The “Brain AEA levels (Example 8)” value ([2]; 2 hours after i.p administration, dose not stated) was “increased”, the “Brain or lung PG levels (Example 8)” value ([2]; dose not stated) was “profoundly decreased” and the “PG levels in peripheral tissues” value [3] was “robustly decreased”.
